Results from patent US10266545B2, “Coumarin derivative as antiviral agent, pharmaceutical composition thereof, its preparation and use” (I-NOVA MEDICINSKA ISTRAZIVANJA D.O.O., priority 2016, dated 2019).

Target: T1, rRT (exogenous recombinant RT) (Human immunodeficiency virus type 1 group M subtype B, UniProt P03366)
T1 construct: recombinant RT was added with a known activity and concentration; purchased Cavidi (Sweden) 52010
Test: Direct effect on exogenous recombinant RT (rRT), HS-Lenti RT activity kit
Type: biochemical, HIV-1
Conditions: for inhibition at 10 µM: 0.01 mM
Method: The RT test was performed by using HS-Lenti RT activity kit test provided by Cavidi (Sweden) for direct study of inhibitory effect of rRT. HS-Lenti RT activity assay provides an opportunity for direct determination of the effects of the test compound 1 and the control compound 2 on the activity of rRT, of known concentrations. […] Such opportunity is provided by the test kit manufacturer, see literature reference 10: • 10) X. Shao, D. Ekstrand, R. Bhikhabhai, C. Kallander, J. Gronowitz: A non-radioactive microtitre plate reverse transcriptase (RT) assay, based on immobilized template, for screening of RT activity inhibitors and evaluation of the mode of action, Antiviral Chem. Chemother. 8 (1997) 149-159.
For the control, commonly used substance with proven antiviral activity was employed; in our case, we used Kivexa, which contains 600 mg Abacavir and 300 mg of Lamivudine, which is applied in clinical practice as nucleoside inhibitor of RT. In the presence of RT inhibition in the test, it is concluded that not only the replication of the virus is inhibited, but also probably the target of the inhibitory effect is RT itself. To confirm this conclusion, it is necessary that percentage (%) of inhibition of the RT coincides with the % inhibition in the microtiter MTT assay. […] After incubation, we determined whether the activity of the enzyme shall be amended (inhibited) by action of the compounds 1 or 2. […]
The procedure was as follows: In wells of a company plate coated with a matrix poly-rA, are added reaction mixture to RT, the primer containing oligo-dT, Brd UTP as a source of dNTP and prepared at buffer of the commercial test 10× more concentrated (as reaction mixture was in a volume of 100 μl) of the test substance dilutions. […] Manifestation of the enzyme reaction was carried out using a suitable substrate for alkaline phosphatase for 30 minutes and then the absorbance was detected at a wavelength of 405 nm. […]

`O=c1oc2cc(O)cc(O)c2c(O)c1-c1coc2c1c(=O)oc1cc(O)cc(O)c12` [Compound 1, 7,9-dihydroxy-3-(4,5,7-trihydroxy-2-oxo-2H-chromene-3-yl)-4H-furo[3,2-c]chromen-4-one] was tested, and the inhibition at 5 µM (0.005 mM) was 0% and the inhibition at 10 µM was 72.8%.
`O=c1oc2cc(O)c(O)cc2c(O)c1-c1coc2c1c(=O)oc1cc(O)c(O)cc12` [Compound 2, 7,8-dihydroxy-3-(4,6,7-trihydroxy-2-oxo-2H-chromen-3-yl)-4H-furo[3,2-c]chromen-4-one, reference compound] gave an inhibition at 10 µM of 0%.
